The target in this assay is HLA A*3001 (Homo sapiens, UniProt P04439, D140H/D185E/E176W/F33S/G80R/H175R/K168Q/R138E/R41S). Put plainly: biochemical. The class given is binding.

The source of these data is publication PMC2248166, “Quantitative peptide binding motifs for 19 human and mouse MHC class I molecules derived using positional scanning combinatorial peptide libraries” (Immunome Research, 2008).

The IC50 is the concentration that gives 50% inhibition.

Where a SMILES comes first, the peptide text is derived from it.

Chain of HLA A*3001 (P04439 25-365 limits assumed, stated change not applied): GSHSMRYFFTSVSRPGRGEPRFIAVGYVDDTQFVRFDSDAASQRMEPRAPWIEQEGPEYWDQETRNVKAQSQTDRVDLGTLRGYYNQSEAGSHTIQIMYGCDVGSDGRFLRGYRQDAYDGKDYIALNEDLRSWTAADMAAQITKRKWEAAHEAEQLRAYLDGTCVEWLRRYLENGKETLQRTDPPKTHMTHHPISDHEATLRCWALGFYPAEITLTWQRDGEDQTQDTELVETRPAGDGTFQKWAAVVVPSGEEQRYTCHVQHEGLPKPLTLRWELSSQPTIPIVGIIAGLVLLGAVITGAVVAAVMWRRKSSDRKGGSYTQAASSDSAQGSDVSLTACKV

For the compound `CC[C@H](C)[C@H](NC(=O)[C@H](CCSC)NC(=O)[C@H](CCSC)NC(=O)[C@@H](NC(=O)[C@@H](N)CCCCN)[C@@H](C)O)C(=O)N[C@@H](CC(N)=O)C(=O)N1CCC[C@H]1C(=O)N[C@@H](Cc1ccccc1)C(=O)N[C@@H](CCSC)C(=O)O` [3102.0254] (H-KTMMINPFM-OH), the IC50 stood at 0.36 nM. That is a sub-nanomolar value.
For `CC[C@H](C)[C@H](NC(=O)[C@@H](NC(=O)[C@H](CO)NC(=O)[C@@H](N)CCSC)C(C)C)C(=O)N[C@@H](CO)C(=O)N[C@@H](CC(N)=O)C(=O)N1CCC[C@H]1C(=O)N[C@@H](CO)C(=O)N[C@@H](CCCCN)C(=O)O` [3102.0255] (H-MSVISNPSK-OH), the IC50 is 20 nM.
Turning to `CC(C)C[C@H](NC(=O)[C@H](CCCCN)NC(=O)[C@H](Cc1ccccc1)NC(=O)[C@@H](N)CCCCN)C(=O)N[C@H](C(=O)N[C@@H](CC(C)C)C(=O)N1CCC[C@H]1C(=O)N[C@@H](CC(N)=O)C(=O)N[C@@H](CCCCN)C(=O)O)[C@@H](C)O` [3102.0261] (H-KFKLTLPNK-OH), the IC50 worked out at 12 nM.
In the case of `CC(C)C[C@H](NC(=O)[C@H](CCCCN)NC(=O)[C@H](CCCCN)NC(=O)[C@@H](NC(=O)[C@@H](N)CCCCN)C(C)C)C(=O)N[C@@H](CC(N)=O)C(=O)N[C@@H](CCCNC(=N)N)C(=O)N[C@@H](CS)C(=O)N[C@@H](C)C(=O)O` [3102.0262] (H-KVKKLNRCA-OH), 3.1 nM corresponded to half-maximal inhibition (IC50). This IC50 is about 3.9-fold lower than that of the compound before.
For `CSCC[C@H](NC(=O)[C@H](Cc1ccccc1)NC(=O)[C@H](CCCCN)NC(=O)[C@H](CCCNC(=N)N)NC(=O)[C@H](CO)NC(=O)[C@@H](N)CCSC)C(=O)N[C@@H](CCC(N)=O)C(=O)N[C@H](C(=O)N[C@@H](Cc1ccc(O)cc1)C(=O)O)C(C)C` [3102.0264] (H-MSRKFMQVY-OH) the value was 1.5 nM; for `CC(C)C[C@H](NC(=O)[C@@H](NC(=O)[C@H](CS)NC(=O)[C@H](C)NC(=O)[C@H](Cc1ccccc1)NC(=O)[C@H](CCCCN)NC(=O)[C@H](CO)NC(=O)[C@@H](N)CO)C(C)C)C(=O)N[C@@H](CCCCN)C(=O)O` [3102.0265] (H-SSKFACVLK-OH), 9.9 nM.
With `C[C@H](NC(=O)[C@H](CCCNC(=N)N)NC(=O)[C@H](CC(N)=O)NC(=O)[C@H](CCC(N)=O)NC(=O)[C@H](Cc1ccccc1)NC(=O)[C@H](CCCCN)NC(=O)[C@@H](NC(=O)[C@@H](N)CCCNC(=N)N)[C@@H](C)O)C(=O)N[C@@H](CCCCN)C(=O)O` [3102.0266] (H-RTKFQNRAK-OH), the IC50 turned out to be 0.16 nM.
The compound `CC[C@H](C)[C@H](NC(=O)[C@H](CCCCN)NC(=O)[C@H](Cc1c[nH]cn1)NC(=O)[C@@H](N)CCCCN)C(=O)N[C@@H](Cc1ccccc1)C(=O)N[C@@H](CO)C(=O)N1CCC[C@H]1C(=O)N[C@@H](Cc1ccccc1)C(=O)N[C@@H](CCCCN)C(=O)O` [3102.0267] (H-KHKIFSPFK-OH) came in with an IC50 of 0.89 nM. This IC50 is about 5.6-fold higher than that of the compound before.
As for `CSCC[C@H](NC(=O)[C@H](CCCNC(=N)N)NC(=O)[C@H](Cc1ccc(O)cc1)NC(=O)[C@@H](N)CCCNC(=N)N)C(=O)N[C@@H](Cc1c[nH]cn1)C(=O)N1CCC[C@H]1C(=O)N[C@@H](CCSC)C(=O)N[C@@H](CO)C(=O)N[C@@H](CCCCN)C(=O)O` [3102.0268] (H-RYRMHPMSK-OH), the concentration for half-maximal inhibition (IC50) was determined as 0.068 nM.
For `CC[C@H](C)[C@H](NC(=O)[C@H](CCC(N)=O)NC(=O)[C@@H](NC(=O)[C@@H](NC(=O)[C@H](C)NC(=O)[C@H](CCCCN)NC(=O)[C@@H](NC(=O)[C@@H](N)[C@@H](C)O)[C@@H](C)O)[C@@H](C)O)[C@@H](C)O)C(=O)N[C@@H](C)C(=O)O` [3102.0270] (H-TTKATTQIA-OH) the value was 6.5 nM.
For `CC(C)[C@H](NC(=O)[C@H](Cc1c[nH]cn1)NC(=O)[C@@H](NC(=O)[C@H](CC(=O)O)NC(=O)[C@H](CCCCN)NC(=O)[C@H](CO)NC(=O)[C@@H](N)CCCNC(=N)N)[C@@H](C)O)C(=O)N[C@@H](Cc1ccccc1)C(=O)N[C@@H](C)C(=O)O` [3102.0271] (H-RSKDTHVFA-OH) the value was 0.019 nM.
On to `CC[C@H](C)[C@H](NC(=O)[C@H](Cc1ccc(O)cc1)NC(=O)[C@@H](NC(=O)[C@@H](N)CCCCN)C(C)C)C(=O)NCC(=O)N[C@@H](Cc1ccc(O)cc1)C(=O)N[C@@H](CS)C(=O)N[C@@H](CCSC)C(=O)N[C@@H](C)C(=O)O` [3102.0272] (H-KVYIGYCMA-OH), for which half-maximal inhibition (IC50) was put at 2.6 nM.
For the compound `CC(C)C[C@H](N)C(=O)N[C@@H](C)C(=O)N[C@@H](CCCNC(=N)N)C(=O)N[C@@H](CCCNC(=N)N)C(=O)N1CCC[C@H]1C(=O)N[C@H](C(=O)N1CCC[C@H]1C(=O)N[C@@H](CCCCN)C(=O)N[C@@H](CCCCN)C(=O)O)[C@@H](C)O` [3102.0275] (H-LARRPTPKK-OH), the IC50 was 10 nM.
For `CC[C@H](C)[C@H](NC(=O)[C@H](CO)NC(=O)[C@H](CO)NC(=O)[C@H](CO)NC(=O)[C@H](CCCCN)NC(=O)[C@H](CCCNC(=N)N)NC(=O)[C@H](CO)NC(=O)CN)C(=O)N[C@@H](CC(C)C)C(=O)O` [3102.0276] (H-GSRKSSSIL-OH) the value was 1.6 nM; for `CSCC[C@H](NC(=O)[C@H](CCSC)NC(=O)[C@@H]1CCCN1C(=O)[C@@H](NC(=O)[C@@H](NC(=O)[C@H](CC(N)=O)NC(=O)[C@H](CCCNC(=N)N)NC(=O)[C@H](CO)NC(=O)[C@@H](N)CCCCN)[C@@H](C)O)[C@@H](C)O)C(=O)O` [3102.0277] (H-KSRNTTPMM-OH), 0.1 nM; for `C[C@H](NC(=O)[C@H](CCCNC(=N)N)NC(=O)[C@H](Cc1ccccc1)NC(=O)[C@H](CCCCN)NC(=O)[C@@H]1CCCN1C(=O)[C@@H]1CCCN1C(=O)[C@H](CCCCN)NC(=O)[C@H](Cc1ccccc1)NC(=O)[C@@H](N)Cc1c[nH]cn1)C(=O)O` [3102.0279] (H-HFKPPKFRA-OH), 8.9 nM.
For the compound `CC[C@H](C)[C@H](NC(=O)[C@H](C)NC(=O)[C@H](Cc1ccc(O)cc1)NC(=O)[C@H](CCCCN)NC(=O)[C@H](CCCCN)NC(=O)[C@H](CCCCN)NC(=O)[C@@H](NC(=O)[C@@H](N)CCCCN)C(C)C)C(=O)NCC(=O)O` [3102.0280] (H-KVKKKYAIG-OH), inhibition was half-maximal at 1.6 nM (IC50).
Compound `CC(C)C[C@H](NC(=O)[C@H](CCCNC(=N)N)NC(=O)[C@H](Cc1ccc(O)cc1)NC(=O)[C@H](CCC(=O)O)NC(=O)[C@H](CCC(N)=O)NC(=O)[C@H](Cc1ccccc1)NC(=O)[C@@H](NC(=O)[C@@H](N)Cc1c[nH]cn1)C(C)C)C(=O)N[C@@H](CCCCN)C(=O)O` [3102.0284] (H-HVFQEYRLK-OH) yielded an IC50 of 27 nM.
In turn, `CC[C@H](C)[C@H](NC(=O)[C@H](CCCCN)NC(=O)[C@@H](NC(=O)[C@@H](N)CCCCN)[C@@H](C)O)C(=O)N[C@@H](CC(=O)O)C(=O)N[C@H](C(=O)N[C@H](C(=O)N[C@@H](Cc1ccccc1)C(=O)N[C@@H](C)C(=O)O)[C@@H](C)CC)[C@@H](C)CC` [3102.0285] (H-KTKIDIIFA-OH) showed an IC50 of 10 nM.
Compound `CC(C)C[C@H](NC(=O)[C@H](C)NC(=O)[C@H](CCC(=O)O)NC(=O)[C@H](CCCNC(=N)N)NC(=O)[C@@H](NC(=O)[C@@H](N)CCCCN)C(C)C)C(=O)N[C@@H](CC(=O)O)C(=O)NCC(=O)N[C@H](C(=O)O)C(C)C` [3102.0286] (H-KVREALDGV-OH) yielded an IC50 of 0.11 nM.
For `CSCC[C@H](NC(=O)[C@H](CO)NC(=O)[C@H](C)NC(=O)CNC(=O)[C@H](CCCCN)NC(=O)[C@H](C)NC(=O)[C@H](C)N)C(=O)N[C@H](C(=O)N[C@@H](CC(C)C)C(=O)O)[C@@H](C)O` [3102.0287] (H-AAKGASMTL-OH) the value was 1 nM.
